Measurements: paper PMC4890880 (ACS infectious diseases, 2016)
Read-outs that look alike come from different tables or passages of the source.

Key:
HepG2-A16-CD81EGFP cells = conditions: for IC50: read-out: Tox_IC50, HepG2 cytotoxicity
[1] = system: Plasmodium berghei (Pb-Luc) exoerythrocytic-stage parasites; conditions: for normalised signal at concentration 10 (first series): concentration 10, first series of dose columns; for normalised signal at concentration 10 (second series): concentration 10, second series of dose columns; for IC50: read-out: PbLuc_IC50; for normalized signal at concentration 0.000508053 / normalized signal at concentration 0.00152416 / normalized signal at concentration 0.00457247 / normalized signal at concentration 0.0137174 / normalized signal at concentration 0.0411523 / normalized signal at concentration 0.123457 / normalized signal at concentration 0.37037 / normalized signal at concentration 1.11111 / normalized signal at concentration 3.33333 / normalized signal at concentration 10: fraction of control
[2] = sheet "2nd round", Broad compounds, dose response top concentration 10
[3] = sheet 2nd round, maximal inhibition in dose response
[4] = second series of columns (replicate)

SMILES: C[C@H](CO)N1C[C@H](C)[C@@H](CN(C)S(=O)(=O)c2ccc(F)cc2)OCCCC[C@H](C)Oc2ccc(N(C)C)cc2C1=O [BRD-K31169989-001-01-4]
- IC50 (HepG2-A16-CD81EGFP cells; sheet "2nd round"): > 10 µM
- Tox_max_inhibition (%) (HepG2-A16-CD81EGFP cells; sheet "2nd round"): 13%
- normalised signal at concentration 0.000508053 (first series) [1]: 0.9593
- normalised signal at concentration 0.000508053 (second series) [1]: 1.075
- normalised signal at concentration 0.00152416 (first series) [1]: 0.7705
- normalised signal at concentration 0.00152416 (second series) [1]: 0.9043
- normalised signal at concentration 0.00457247 (first series) [1]: 0.8601
- normalised signal at concentration 0.00457247 (second series) [1]: 0.8661
- normalised signal at concentration 0.0137174 (first series) [1]: 0.7407
- normalised signal at concentration 0.0137174 (second series) [1]: 1.136
- normalised signal at concentration 0.0411523 (first series) [1]: 1.052
- normalised signal at concentration 0.0411523 (second series) [1]: 0.8649
- normalised signal at concentration 0.123457 (first series) [1]: 0.7251
- normalised signal at concentration 0.123457 (second series) [1]: 0.9568
- normalised signal at concentration 0.37037 (first series) [1]: 0.9029
- normalised signal at concentration 0.37037 (second series) [1]: 0.9798
- normalised signal at concentration 1.11111 (first series) [1]: 0.7471
- normalised signal at concentration 1.11111 (second series) [1]: 0.8642
- normalised signal at concentration 3.33333 (first series) [1]: 0.9659
- normalised signal at concentration 3.33333 (second series) [1]: 0.7643
- normalised signal at concentration 10 (first series) [1]: 0.5392
- normalised signal at concentration 10 (second series) [1]: 0.607
- IC50 [1, 2]: > 10 µM
- PbLuc_max_inhibition (%) ([1]; sheet "2nd round"): 46%

SMILES: Cc1noc(C)c1S(=O)(=O)N(C)C[C@@H]1OCCCC[C@@H](C)Oc2ccc(N(C)C)cc2C(=O)N([C@@H](C)CO)C[C@H]1C [BRD-K31367750-001-01-1]
- IC50 (HepG2-A16-CD81EGFP cells; sheet 2nd round): > 10 µM
- Tox_max_inhibition (%) (HepG2-A16-CD81EGFP cells; [3]): 10%
- normalized signal at concentration 0.000508053 ([1]; first series of columns): 1.082
- normalized signal at concentration 0.00152416 ([1]; first series of columns): 1.078
- normalized signal at concentration 0.00457247 ([1]; first series of columns): 1.115
- normalized signal at concentration 0.0137174 ([1]; first series of columns): 1.059
- normalized signal at concentration 0.0411523 ([1]; first series of columns): 1.054
- normalized signal at concentration 0.123457 ([1]; first series of columns): 1.1
- normalized signal at concentration 0.37037 ([1]; first series of columns): 1.064
- normalized signal at concentration 1.11111 ([1]; first series of columns): 0.9576
- normalized signal at concentration 3.33333 ([1]; first series of columns): 1.005
- normalized signal at concentration 10 ([1]; first series of columns): 1.057
- IC50 ([1]; sheet 2nd round, Pb-Luc exoerythrocytic stage, 10-point dose response, top concentration 10): > 10 µM
- normalized signal at concentration 0.000508053 [1, 4]: 1.02
- normalized signal at concentration 0.00152416 [1, 4]: 0.9419
- normalized signal at concentration 0.00457247 [1, 4]: 0.9058
- normalized signal at concentration 0.0137174 [1, 4]: 0.8746
- normalized signal at concentration 0.0411523 [1, 4]: 0.9045
- normalized signal at concentration 0.123457 [1, 4]: 0.9742
- normalized signal at concentration 0.37037 [1, 4]: 0.91
- normalized signal at concentration 1.11111 [1, 4]: 0.8518
- normalized signal at concentration 3.33333 [1, 4]: 0.8811
- normalized signal at concentration 10 [1, 4]: 0.9567
- PbLuc_max_inhibition (%) [1, 3]: 15%

SMILES: C[C@H]1CCCCO[C@@H](CN(C)S(=O)(=O)c2ccc(F)cc2)[C@@H](C)CN([C@@H](C)CO)C(=O)c2cc(N(C)C)ccc2O1 [BRD-K31467596-001-01-7]
- IC50 (HepG2-A16-CD81EGFP cells; sheet "2nd round"): > 10 µM
- Tox_max_inhibition (%) (HepG2-A16-CD81EGFP cells; sheet "2nd round"): 19%
- normalised signal at concentration 0.000508053 (first series) [1]: 0.9636
- normalised signal at concentration 0.000508053 (second series) [1]: 1.196
- normalised signal at concentration 0.00152416 (first series) [1]: 0.9009
- normalised signal at concentration 0.00152416 (second series) [1]: 1.029
- normalised signal at concentration 0.00457247 (first series) [1]: 1.0859
- normalised signal at concentration 0.00457247 (second series) [1]: 1.054
- normalised signal at concentration 0.0137174 (first series) [1]: 0.8351
- normalised signal at concentration 0.0137174 (second series) [1]: 0.885
- normalised signal at concentration 0.0411523 (first series) [1]: 0.8724
- normalised signal at concentration 0.0411523 (second series) [1]: 1.048
- normalised signal at concentration 0.123457 (first series) [1]: 0.8924
- normalised signal at concentration 0.123457 (second series) [1]: 0.8988
- normalised signal at concentration 0.37037 (first series) [1]: 0.8075
- normalised signal at concentration 0.37037 (second series) [1]: 0.9035
- normalised signal at concentration 1.11111 (first series) [1]: 1.0319
- normalised signal at concentration 1.11111 (second series) [1]: 1.046
- normalised signal at concentration 3.33333 (first series) [1]: 0.9413
- normalised signal at concentration 3.33333 (second series) [1]: 0.9885
- normalised signal at concentration 10 (first series) [1]: 0.7997
- normalised signal at concentration 10 (second series) [1]: 0.6635
- IC50 [1, 2]: > 10 µM
- PbLuc_max_inhibition (%) ([1]; sheet "2nd round"): 34%

SMILES: COc1ccc(NC(=O)N(C)C[C@H]2Oc3ccc(NC(=O)CCN4CCOCC4)cc3C(=O)N([C@H](C)CO)C[C@@H]2C)cc1 [BRD-K36853881-001-02-5]
- IC50 (HepG2-A16-CD81EGFP cells; sheet 2nd round): > 10 µM
- Tox_max_inhibition (%) (HepG2-A16-CD81EGFP cells; [3]): 9%
- normalized signal at concentration 10 ([1]; first series of dose-response columns): 0.82
- normalized signal at concentration 0.000508053 ([1]; first series): 0.84
- normalized signal at concentration 0.00152416 ([1]; first series): 0.86
- normalized signal at concentration 0.00457247 ([1]; first series): 0.85
- normalized signal at concentration 0.0137174 ([1]; first series): 0.75
- normalized signal at concentration 0.0411523 ([1]; first series): 0.91
- normalized signal at concentration 0.123457 ([1]; first series): 0.88
- normalized signal at concentration 0.37037 ([1]; first series): 0.86
- normalized signal at concentration 1.11111 ([1]; first series): 0.92
- normalized signal at concentration 3.33333 ([1]; first series): 0.69
- IC50 ([1]; sheet 2nd round, Broad compounds, dose response): > 10 µM
- normalized signal at concentration 10 ([1]; second series of dose-response columns): 0.77
- normalized signal at concentration 0.000508053 ([1]; second series): 1.01
- normalized signal at concentration 0.00152416 ([1]; second series): 0.81
- normalized signal at concentration 0.00457247 ([1]; second series): 0.82
- normalized signal at concentration 0.0137174 ([1]; second series): 0.71
- normalized signal at concentration 0.0411523 ([1]; second series): 0.92
- normalized signal at concentration 0.123457 ([1]; second series): 0.81
- normalized signal at concentration 0.37037 ([1]; second series): 0.84
- normalized signal at concentration 1.11111 ([1]; second series): 0.84
- normalized signal at concentration 3.33333 ([1]; second series): 0.84
- PbLuc_max_inhibition (%) [1, 3]: 31%
